In ChEMBL document CHEMBL1159164, “Inactivation of serine protease, -chymotrypsin by fluorinated phenylalanine analogues” (Bioorg Med Chem Lett, 1996):

Tests used:
Chymotrypsinogen B [1] = molecular target: T1, Chymotrypsinogen B (Homo sapiens, UniProt P17538)
Chymotrypsinogen B [2] = molecular target: T1, Chymotrypsinogen B; test: Irreversible inhibitory activity toward alpha-chymotrypsin (1.6 uM concentration) at a pH of 7.8 by incubation method. reversible competitive inactivation
Chymotrypsinogen B [3] = molecular target: T1, Chymotrypsinogen B; test: Reversible inhibitory activity toward alpha-chymotrypsin (5 nM concentration) at a pH of 7.8 by progress curve method.
Chymotrypsinogen B [4] = molecular target: T1, Chymotrypsinogen B; remark: listed apart in the source
Chymotrypsinogen B [5] = molecular target: T1, Chymotrypsinogen B; test: Time dependent loss of inhibitory activity toward alpha-chymotrypsin (1.6 uM concentration) at a pH of 7.8 by incubation method; no inactivation observed.
Chymotrypsinogen B [6] = molecular target: T1, Chymotrypsinogen B; test: Reversible inhibitory activity toward alpha-chymotrypsin (5 nM concentration) at a pH of 7.8 by progress curve method.; no inactivation observed.
Chymotrypsinogen B [7] = molecular target: T1, Chymotrypsinogen B; test: Irreversible inhibitory activity toward alpha-chymotrypsin (1.6 uM concentration) at a pH of 7.8 by incubation method.
Chymotrypsinogen B [8] = molecular target: T1, Chymotrypsinogen B; test: Reversible inhibitory activity toward alpha-chymotrypsin (5 nM concentration) at a pH of 7.8 by progress curve method; no inactivation observed.

T1 sequence (P17538 34-164 limits assumed, other chains not shown): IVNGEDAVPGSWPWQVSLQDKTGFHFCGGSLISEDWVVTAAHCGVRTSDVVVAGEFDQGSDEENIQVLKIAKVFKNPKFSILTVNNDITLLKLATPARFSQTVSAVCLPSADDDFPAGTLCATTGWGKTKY
T1 sequence (P17538 167-263 limits assumed, other chains not shown): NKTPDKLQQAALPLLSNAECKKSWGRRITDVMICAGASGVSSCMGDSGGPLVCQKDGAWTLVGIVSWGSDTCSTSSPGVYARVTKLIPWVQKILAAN

| Compound | [I] (Chymotrypsinogen B [2]) | Ki (Chymotrypsinogen B [3]) | K obs / 1 (Chymotrypsinogen B [5]) | also measured |
| --- | --- | --- | --- | --- |
| COC(=O)C(F)(F)[C@H](Cc1ccccc1)NC(C)=O | 6.86 mM | 0.034 mM |  | K obs / 1 (Chymotrypsinogen B [1]): No inactivation |
| C=CC(F)(F)[C@H](Cc1ccccc1)NC(C)=O |  | 0.46 mM |  | [I] (Chymotrypsinogen B [4]): 8.7 mM |
| COC(=O)C(F)[C@H](Cc1ccccc1)NC(C)=O (stereo in doubt; syn) [listing 1 of 2 here] |  | 19.1 mM |  |  |
| CC(=O)N[C@@H](Cc1ccccc1)C(C)(F)F |  |  | No inactivation | Ki (Chymotrypsinogen B [6]): No inactivation; [I] (Chymotrypsinogen B [7]): 4.85 mM |
| C=CC(F)[C@H](Cc1ccccc1)NC(C)=O (some centres not stated) |  |  | No inactivation | [I] (Chymotrypsinogen B [7]): 9.73 mM; Ki (Chymotrypsinogen B [8]): No inactivation |
| COC(=O)C(F)[C@H](Cc1ccccc1)NC(C)=O (stereo in doubt; anti) [listing 1 of 2 here] |  | 6.44 mM |  |  |
| COC(=O)C(F)[C@H](Cc1ccccc1)NC(C)=O (stereo in doubt; syn) [listing 2 of 2 here] | 4.58 mM |  | No inactivation |  |
| COC(=O)C(F)[C@H](Cc1ccccc1)NC(C)=O (stereo in doubt; anti) [listing 2 of 2 here] | 6.25 mM |  | No inactivation |  |
